Measured values reported in US20220235073A1, “ARTEMISININ-DERIVATIVE N-HETEROCYCLIC CARBENE GOLD(I) HYBRID COMPLEXES” (CENTRE NATIONAL DE LA RECHERCHE SCIENTIFIQUE, priority 2019, published 2022).
pIC50: −log10 of the molar value. Where two headings read alike, the source gives them in different places. Each block holds one compound with its values, some of them ahead of it.

What was measured:
[1] = system: NIH3T3 murine fibroblast cells; assay: Cell viability MTT assay, NIH3T3; assay type: cell-based; conditions: for GI50: 72 h, MTT assay; for Selectivity index NIH3T3: SI = GI50 (non-cancer cell line NIH3T3)/GI50 (cancer cell line PC-3); for pIC50: Table 3, non tumoral cell model, read-out: IC50 NIH3T3 (fibroblasts)
Protocol: (§1) HepG-2 human liver cancer cells were cultured in EMEM containing 10% of FBS, 1% of nonessential amino acids, 1 mM of Na-pyruvate, 1% of PenStrep antibiotics and 600 μg/mL of Geneticin. A549 human lung carcinoma cells, T24 human bladder carcinoma cells, MCF-7 human breast adenocarcinoma cells, U-2OS human osteosarcoma and NIH3T3 murine fibroblast cells were cultured in DMEM medium containing 10% fetal bovine serum and 1% antibiotics at 37° C. in 5% CO2 humidified incubators. MC3T3 mouse osteoblast cells were cultured in MEM medium containing 10% fetal bovine serum and 1% antibiotics at 37° C. in 5% CO2 humidified incubators. RWPE-1 human prostate normal cells were cultured in K-SFM medium containing 0.05 mg/ml bovine pituitary extract (BPE) and 5 ng/ml epidermal growth factor (EGF) at 37° C. in 5% CO2 humidified incubators. The MTT reagent (3-(4,5-dimethylthiazol-2-yl)-2,5-diphenyltetrazolium bromide) was used to determine cell death as originally described by Mosmaneland modified by Cuvillier et al.^[6] Briefly, cells were seeded 5,000 to 10,000 cells/well in 24-well plates depending on the cell type and allowed to attach overnight. All of the complexes were dissolved in DMSO. The concentration of the complexes was calculated according to the elemental composition of the complexes determined by the elemental analyses. Media in the presence of the tested complexes were added and serially diluted to various concentrations (from 5 μM to 0.01 μM). Next to these concentrations, for DHA 50, 20 and 10 μM and for the cationic bisNHC gold(I) complex 3 0.001 μM have been used. […] After 72 h of treatment, cells were incubated at 37° C. and 5% CO2 with 25 μL MTT solution (5 mg/mL; Sigma-Aldrich) in 24-well plates for approximately 3 to 4 h. After solubilization with 500 μL of lysis buffer (DMSO), formazan was quantified by spectrophotometry with a microplate reader at 570 nm absorbance. […] All the results were calculated from data obtained in three independent experiments.

[2] = system: LAMA chronic myeloid leukemia; assay: Cell viability MTT assay, LAMA; assay type: cell-based, human; conditions: for GI50: 72 h, MTT assay; for pIC50: Table 3, tumor cell model
Protocol: (§2) PC-3 human prostate cancer cells, and LAMA chronic myeloid leukemia were cultured in RPMI 1640 containing 10% fetal bovine serum and 1% antibiotics (100 U/mL penicillin and 100 μg/mL streotimycin) at 37° C. in 5% CO2 humidified incubators. HL60 […] were cultured in RPMI 1640 containing 15% fetal bovine serum and 1% antibiotics (100 U/mL penicillin and 100 μg/mL streotimycin) at 37° C. in 5% CO2 humidified incubators. HepG-2 human liver cancer cells were cultured in EMEM containing 10% of FBS, 1% of nonessential amino acids, 1 mM of Na-pyruvate, 1% of PenStrep antibiotics and 600 μg/mL of Geneticin. A549 human lung carcinoma cells, T24 human bladder carcinoma cells, MCF-7 human breast adenocarcinoma cells, U-2OS human osteosarcoma and NIH3T3 murine fibroblast cells were cultured in DMEM medium containing 10% fetal bovine serum and 1% antibiotics at 37° C. in 5% CO2 humidified incubators. MC3T3 mouse osteoblast cells were cultured in MEM medium containing 10% fetal bovine serum and 1% antibiotics at 37° C. in 5% CO2 humidified incubators. RWPE-1 human prostate normal cells were cultured in K-SFM medium containing 0.05 mg/ml bovine pituitary extract (BPE) and 5 ng/ml epidermal growth factor (EGF) at 37° C. in 5% CO2 humidified incubators. The MTT reagent (3-(4,5-dimethylthiazol-2-yl)-2,5-diphenyltetrazolium bromide) was used to determine cell death as originally described by Mosmaneland modified by Cuvillier et al.^[6] Briefly, cells were seeded 5,000 to 10,000 cells/well in 24-well plates depending on the cell type and allowed to attach overnight. All of the complexes were dissolved in DMSO. The concentration of the complexes was calculated according to the elemental composition of the complexes determined by the elemental analyses. Media in the presence of the tested complexes were added and serially diluted to various concentrations (from 5 μM to 0.01 μM). Next to these concentrations, for DHA 50, 20 and 10 μM and for the cationic bisNHC gold(I) complex 3 0.001 μM have been used. […] After 72 h of treatment, cells were incubated at 37° C. and 5% CO2 with 25 μL MTT solution (5 mg/mL; Sigma-Aldrich) in 24-well plates for approximately 3 to 4 h. After solubilization with 500 μL of lysis buffer (DMSO), formazan was quantified by spectrophotometry with a microplate reader at 570 nm absorbance. The GI50 values corresponding to the concentration that caused 50% inhibition of cell proliferation were calculated from dose-response curves obtained by nonlinear regression analysis (Prism 8, Graphpad Software). All the results were calculated from data obtained in three independent experiments.

[3] = system: Non tumoral cell models (MC3-T3, NIH3T3, RWPE1); assay: MTT assay, mean over non tumoral cell models; assay type: cell-based; conditions: mean of MC3-T3, NIH3T3, RWPE1
Protocol: (§3) PC-3 human prostate cancer cells, and LAMA chronic myeloid leukemia were cultured in RPMI 1640 containing 10% fetal bovine serum and 1% antibiotics (100 U/mL penicillin and 100 μg/mL streotimycin) at 37° C. in 5% CO2 humidified incubators. HL60 […] were cultured in RPMI 1640 containing 15% fetal bovine serum and 1% antibiotics (100 U/mL penicillin and 100 μg/mL streotimycin) at 37° C. in 5% CO2 humidified incubators. HepG-2 human liver cancer cells were cultured in EMEM containing 10% of FBS, 1% of nonessential amino acids, 1 mM of Na-pyruvate, 1% of PenStrep antibiotics and 600 μg/mL of Geneticin. A549 human lung carcinoma cells, T24 human bladder carcinoma cells, MCF-7 human breast adenocarcinoma cells, U-2OS human osteosarcoma and NIH3T3 murine fibroblast cells were cultured in DMEM medium containing 10% fetal bovine serum and 1% antibiotics at 37° C. in 5% CO2 humidified incubators. MC3T3 mouse osteoblast cells were cultured in MEM medium containing 10% fetal bovine serum and 1% antibiotics at 37° C. in 5% CO2 humidified incubators. RWPE-1 human prostate normal cells were cultured in K-SFM medium containing 0.05 mg/ml bovine pituitary extract (BPE) and 5 ng/ml epidermal growth factor (EGF) at 37° C. in 5% CO2 humidified incubators. The MTT reagent (3-(4,5-dimethylthiazol-2-yl)-2,5-diphenyltetrazolium bromide) was used to determine cell death as originally described by Mosmaneland modified by Cuvillier et al.^[6] Briefly, cells were seeded 5,000 to 10,000 cells/well in 24-well plates depending on the cell type and allowed to attach overnight. All of the complexes were dissolved in DMSO. The concentration of the complexes was calculated according to the elemental composition of the complexes determined by the elemental analyses. […] After solubilization with 500 μL of lysis buffer (DMSO), formazan was quantified by spectrophotometry with a microplate reader at 570 nm absorbance. […] All the results were calculated from data obtained in three independent experiments.

[4] = system: A549 human lung carcinoma cells; assay: Cell viability MTT assay, A549; assay type: cell-based; conditions: for GI50: 72 h, MTT assay; for pIC50: Table 3, tumor cell model
Protocol: as §2

[5] = system: HL60 (acute myeloid leukemia); assay: Cell viability MTT assay, HL60; assay type: cell-based; conditions: for GI50: 72 h, MTT assay; for pIC50: Table 3, tumor cell model
Protocol: as §2

Tumor cell models = assay: MTT assay, panel of tumor cell models; assay type: cell-based, human; conditions: mean of PC-3, A549, U2OS, T24, MCF-7, LAMA, HL60
Protocol: as §3

[6] = system: MC3T3 mouse osteoblast cells; assay: Cell viability MTT assay, MC3T3; assay type: cell-based; conditions: for GI50: 72 h, MTT assay; for Selectivity index MC3T3: SI = GI50 (MC3T3)/GI50 (PC-3); for pIC50: Table 3, non tumoral cell model, read-out: IC50 MC3-T3 (osteoblasts); for Specificity Bone: MC3-T3 (normal immortalized)/U2OS (tumoral): ratio of IC50, tumoral versus non tumoral cells of same tissue
Protocol: as §2

[7] = system: RWPE-1 human prostate normal cells; assay: Cell viability MTT assay, RWPE-1; assay type: cell-based; conditions: for GI50: 72 h, MTT assay; for Selectivity index RWPE-1: SI = GI50 (RWPE-1)/GI50 (PC-3); for pIC50: Table 3, non tumoral cell model, read-out: IC50 RWPE1 (prostatic epithelial cells); for Specificity Prostate: RWPE1 (normal immortalized)/PC-3 (tumoral): ratio of IC50, tumoral versus non tumoral cells of same tissue
Protocol: as §1

U-2OS human osteosarcoma = assay: Cell viability MTT assay, U-2OS; assay type: cell-based; conditions: for GI50: 72 h, MTT assay; for pIC50: Table 3, tumor cell model, read-out: IC50 U2OS (bone tumor)
Protocol: as §2

[8] = system: HepG-2 human liver cancer cells; assay: Cell viability MTT assay, HepG-2; assay type: cell-based
Protocol: as §3

[9] = system: PC-3 human prostate cancer cells; assay: Cell viability MTT assay, PC-3; assay type: cell-based; conditions: for GI50: 72 h, MTT assay; for pIC50: Table 3, tumor cell model
[10] = system: T24 human bladder carcinoma cells; assay: Cell viability MTT assay, T24; assay type: cell-based; conditions: for GI50: 72 h, MTT assay; for pIC50: Table 3, tumor cell model
Protocol: as §2

Compound: CC(=O)OC[C@H]1O[C@@H]([S-])[C@H](OC(C)=O)[C@@H](OC(C)=O)[C@@H]1OC(C)=O.CCP(CC)CC.[Au+] [Auranofin]
- GI50 [1]: 1.1 µM
- Selectivity index NIH3T3 [1]: 1.0
- pIC50 [1]: 5.96
- GI50 [2]: 0.81 µM
- pIC50 [2]: 6.09
- pIC50 [3]: 6.07
- GI50 [4]: 4.41 µM
- pIC50 [4]: 5.36
- GI50 [5]: 0.95 µM
- pIC50 [5]: 6.02
- pIC50 (Tumor cell models): 5.84
- GI50 [6]: 1.39 µM
- Selectivity index MC3T3 [6]: 1.2
- pIC50 [6]: 5.86
- Specificity Bone: MC3-T3 (normal immortalized)/U2OS (tumoral) [6]: 2.9
- GI50 [7]: 0.084 µM
- Selectivity index RWPE-1 [7]: 0.1
- pIC50 [7]: 7.08
- Specificity Prostate: RWPE1 (normal immortalized)/PC-3 (tumoral) [7]: 0.1
- GI50 (U-2OS human osteosarcoma; read-out: GI50 U2OS): 0.47 µM
- pIC50 (U-2OS human osteosarcoma): 6.32
- GI50 ([8]; 72 h): 3.62 µM
- GI50 [9]: 1.09 µM
- pIC50 [9]: 5.96
- GI50 [10]: 1.1 µM
- pIC50 [10]: 5.96

- GI50 ([2]; Homo sapiens): 5.6 µM
- pIC50 ([2]; Homo sapiens): 5.25
- GI50 ([4]; Homo sapiens, A549): 11 µM
- pIC50 ([4]; Homo sapiens, A549): 4.96
- GI50 ([5]; Homo sapiens, HL-60): 25 µM
- pIC50 ([5]; Homo sapiens, HL-60): 5.49
- pIC50 (Tumor cell models; Homo sapiens): 5.24
- GI50 (U-2OS human osteosarcoma; Homo sapiens, U2OS): 4.1 µM
- pIC50 (U-2OS human osteosarcoma; Homo sapiens, U2OS): 5.39
- GI50 ([8]; Homo sapiens, HepG2, 72 h): 12 µM
- GI50 ([9]; Homo sapiens): 1.56 µM
- pIC50 ([9]; Homo sapiens): 5.81
- GI50 ([10]; Homo sapiens): 4.99 µM
- pIC50 ([10]; Homo sapiens): 5.30
Compound: C[C@H]1[C@@H](O)O[C@@H]2O[C@]3(C)CC[C@H]4[C@H](C)CC[C@@H]1[C@@]24OO3 [DHA, dihydroartemisinin]
- GI50 ([1]; Mus musculus, NIH3T3): 3.86 µM
- pIC50 ([1]; Mus musculus, NIH3T3): 5.41
- Selectivity index NIH3T3 [1]: 2.5
- pIC50 [3]: 5.24
- GI50 ([6]; Mus musculus, Osteoblast): 3.55 µM
- pIC50 ([6]; Mus musculus, Osteoblast): 5.45
- Selectivity index MC3T3 [6]: 2.3
- Specificity Bone: MC3-T3 (normal immortalized)/U2OS (tumoral) [6]: 0.9
- GI50 ([7]; Homo sapiens, RWPE-1): 9.68 µM
- pIC50 ([7]; Homo sapiens, RWPE-1): 5.01
- Selectivity index RWPE-1 [7]: 6.2
- Specificity Prostate: RWPE1 (normal immortalized)/PC-3 (tumoral) [7]: 6.2
